For the test, the target named is T1, human IKK-2 (rhIKK-2 homodimer) (Homo sapiens, UniProt O14920).
T1 construct: FLAG (DYKDDDDKD) (C); made in house; host or cells: insect cells (baculovirus, pFastBac)
T1 sequence (O14920 1-756): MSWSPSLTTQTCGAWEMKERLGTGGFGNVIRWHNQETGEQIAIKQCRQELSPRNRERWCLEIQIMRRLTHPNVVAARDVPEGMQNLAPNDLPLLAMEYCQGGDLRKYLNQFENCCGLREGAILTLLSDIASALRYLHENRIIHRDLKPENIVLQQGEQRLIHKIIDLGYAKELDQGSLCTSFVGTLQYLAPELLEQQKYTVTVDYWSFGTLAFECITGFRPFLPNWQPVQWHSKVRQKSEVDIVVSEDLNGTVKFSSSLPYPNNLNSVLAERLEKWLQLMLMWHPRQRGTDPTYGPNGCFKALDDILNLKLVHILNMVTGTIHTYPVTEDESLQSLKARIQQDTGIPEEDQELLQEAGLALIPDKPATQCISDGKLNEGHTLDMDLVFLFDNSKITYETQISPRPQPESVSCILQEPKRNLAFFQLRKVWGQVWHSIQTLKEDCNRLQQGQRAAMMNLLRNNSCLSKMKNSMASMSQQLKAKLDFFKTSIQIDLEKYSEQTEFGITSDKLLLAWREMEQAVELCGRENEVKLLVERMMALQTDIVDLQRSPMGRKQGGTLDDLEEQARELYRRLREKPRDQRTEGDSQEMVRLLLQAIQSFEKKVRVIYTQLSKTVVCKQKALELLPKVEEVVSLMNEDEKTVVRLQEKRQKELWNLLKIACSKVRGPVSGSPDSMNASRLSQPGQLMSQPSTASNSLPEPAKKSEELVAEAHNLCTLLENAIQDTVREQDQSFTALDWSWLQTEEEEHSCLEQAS
The experiment in a line: IKK-2 Resin Enzyme Assay (Human IKK-2 Enzyme Assay). Format: biochemical. Conditions: human IKK-2, resin enzyme assay; read-out: IC50 (μM) hIKK-2. An excerpt: Materials: SAM^2™96 Biotin capture plates were from Promega. Anti-FLAG affinity resin, FLAG-peptide, NP-40 (Nonidet P-40), BSA, ATP, ADP, AMP, LPS (E. coli serotype 0111:B4), and dithiothreitol were obtained from Sigma Chemicals. Antibodies specific for NEMO (IKK-γ) (FL-419), IKK-1 (H-744), IKK-2(H-470) and IκBa(C-21) were purchased from Santa Cruz Biotechnology. Ni-NTA resin was purchased from Qiagen. Peptides were purchased from American Peptide Company. Protease inhibitor cocktail tablets were from Boehringer Mannheim. Sephacryl S-300 column was from Pharmacia LKB Biotechnology. Centriprep-10 concentrators with a molecular weight cutoff of 10 kDa and membranes with molecular weight cut-off of 30 kDa were obtained from Amicon. [γ-^33P] ATP (2500 Ci/mmol) and [γ-^32P] ATP (6000 Ci/mmol) were purchased from Amersham. The other reagents used were of the highest grade commercially available.
Cloning and Expression: cDNAs of human IKK-1 and IKK-2 were amplified by reverse transcriptase-polymerase chain reaction from human placental RNA (Clonetech). hlKK-1 was subcloned into pFastBac HTa (Life Technologies) and expressed as N-terminal His6-tagged fusion protein. The hlKK-2 cDNA was amplified using a reverse oligonucleotide primer which incorporated the peptide sequence for a FLAG-epitope tag at the C-terminus of the IKK-2 coding region (DYKDDDDKD). The hlKK-2:FLAG cDNA was subcloned into the baculovirus vector pFastBac. The rhIKK-2 ([…]) mutant was constructed in the same vector used for wild type rhIKK-2 using a QuikChange™ mutagenesis kit (Stratagene). Viral stocks of each construct were used to infect insect cells grown in 40 L suspension culture. […] Cell lysates were stored at −80° C. until purification of the recombinant proteins was undertaken as described below.
Enzyme Isolation: All purification procedures were carried out at 4° C. unless otherwise noted. Buffers used are: buffer A: 20 mM Tris-HCl, pH 7.6, containing 50 mM NaCl, 20 mM NaF, 20 mM β-Glycerophosphate, 500 μM sodium orthovanadate, 2.5 mM metabisulfite, 5 mM benzamidine, 1 mM EDTA, 0.5 mM EGTA, 10% glycerol, 1 mM DTT, 1× Complete™ protease inhibitors; buffer B: same as buffer A, except 150 mM NaCl, and buffer C: same as buffer A, except 500 mM NaCl.
Isolation of rhIKK-2 homodimer: A 10-liter culture of baculovirus-expressing IKK-2 tagged with FLAG peptide was centrifuged and the cell pellet (MOI=0.1 and 1=72 h) was re-suspended in buffer A. These cells were microfluidized, and centrifuged at 100,000×g for 45 min. Supernatant was passed over a G-25 column equilibrated with Buffer A. Protein peak was collected and incubated with anti-FLAG affinity resin on a rotator overnight in buffer B. The resin was washed in batch with 10-15 bed volumes of buffer C. Washed resin was poured into a column and rhIKK-2 homodimer was eluted using 5 bed volumes of buffer B containing FLAG peptide. 5 mM DTT, 0.1% NP-40 and BSA (concentrated to 0.1% in final amount) was added to the eluted enzyme before concentrating in using an Amicon membrane with a molecular weight cut-off of 30 kDa. Enzyme was aliquoted and stored at −80° C.
IKK-2 Resin Enzyme Assay: IKK-2 kinase activity was measured using a biotinylated IκBα peptide (Gly-Leu-Lys-Lys-Glu-Arg-Leu-Leu-Asp-Asp-Arg-His-Asp-Ser32-Gly-Leu-Asp-Ser36-Met-Lys-Asp-Glu-Glu) (American Peptide Co.). 20 μL of the standard reaction mixture contained 5 μM biotinylated IκBα peptide, 0.1 μCi/reaction [γ-^33P] ATP (Amersham) (about 1×10^5 cpm), 1 μM ATP (Sigma), 1 mM DTT (Sigma), 2 mM MgCl2 (Sigma), 2 mM MnCl2 (Sigma), 10 mM NaF (Sigma), 25 mM Hepes (Sigma) buffer, pH 7.6 and 20 μL enzyme solution and 10 μL inhibitor in a final volume of 50 μL. After incubation at 25° C. for 30 min, 150 μL resin (Dowex anion-exchange resin AG1X8 200-400 mesh) in 900 mM formate, pH 3.0 was added to each well to stop the reaction. Resin was allowed to settle for 1 h and 50 μL of supernatant was removed to a Micolite-2 flat bottom plate (Dynex). […]

Some results are limits rather than exact numbers.

A word on the IC50: it is the concentration needed to halve the response being measured. In the case of `CCCCc1ccc(-c2cccc(-n3cc(NC(N)=O)c(C(N)=O)n3)c2)cc1` [Example 364, 4-[(aminocarbonyl)amino]-1-(4′-butyl-1,1′-biphenyl-3-yl)-1H-pyrazole-3-carboxamide], the IC50 worked out at 16.2 µM.
Then `COc1ccc(CNC(=O)c2nn(-c3cccc(O)c3)cc2NC(N)=O)cc1` [Example 299, 1-(3-hydroxy-phenyl)-4-ureido-1H-pyrazole-3-carboxylic acid 4-methoxy-benzylamide], with 0.595 µM.
In the case of `CC(=O)c1ccccc1-c1cccc(-n2cc(NC(N)=O)c(C(N)=O)n2)c1` [Example 91, 1-(2′-acetyl-1,1′-biphenyl-3-yl)-4-[(aminocarbonyl)amino]-1H-pyrazole-3-carboxamide], the concentration for half-maximal inhibition (IC50) is 3.45 µM.
The value for `Cc1cc(-n2cc(NC(N)=O)c(C(N)=O)n2)ccc1-c1cc(F)ccc1O` [Example 242, 1-(5′-Fluoro-2′-hydroxy-2-methyl-biphenyl-4-yl)-4-ureido-1H-pyrazole-3-carboxylic acid amide] was 1.35 µM; that for `CC(=O)c1cccc(-c2cccc(-n3cc(NC(N)=O)c(C(N)=O)n3)c2)c1` [Example 351, 1-(3′-acetyl-1,1′-biphenyl-3-yl)-4-[(aminocarbonyl)amino]-1H-pyrazole-3-carboxamide] was above 20 µM; that for `NC(=O)Nc1cn(-c2cccc(-c3ccc[nH]3)c2)nc1C(N)=O` [Example 68] was 0.55 µM.
For `NC(=O)Nc1cn(-c2cccc(Br)c2)nc1C(N)=O` [Example 20, 4-[(aminocarbonyl)amino]-1-(3-bromophenyl)-1H-pyrazole-3-carboxamide], the half-maximal inhibitory concentration (IC50) came to 0.61 µM.
Then `NC(=O)Nc1cn(-c2ccc(S(=O)(=O)c3ccccc3O)cc2)nc1C(N)=O` [Example 288, 1-(1-(4-(2-hydroxyphenylsulfonyl)phenyl)-3-carbamoyl-1H-pyrazol-4-yl)urea], with 0.252 µM; and `CS(=O)(=O)c1ccc(-c2cccc(-n3cc(NC(N)=O)c(C(N)=O)n3)c2)cc1` [Example 374, 4-[(aminocarbonyl)amino]-1-[4′-(methylsulfonyl)-1,1′-biphenyl-3-yl]-1H-pyrazole-3-carboxamide], with 0.544 µM; and `COc1ccc(-c2cccc(-n3cc(NC(N)=O)c(C(N)=O)n3)c2)cc1` [Example 344, 4-[(aminocarbonyl)amino]-1-(4′-methoxy-1,1′-biphenyl-3-yl)-1H-pyrazole-3-carboxamide], with above 20 µM.
Then `NC(=O)Nc1cn(-c2ccc(F)c(F)c2)nc1C(N)=O` [Example 218, 4-[(aminocarbonyl)amino]-1-(3,4-difluorophenyl)-1H-pyrazole-3-carboxamide], with 1.31 µM; and `CC(=O)OCc1cccc(-c2ccc(-n3cc(NC(N)=O)c(C(N)=O)n3)cc2)c1` [Example 165, 4′-{3-(aminocarbonyl)-4-[(aminocarbonyl)amino]-1H-pyrazol-1-yl}-1,1′-biphenyl-3-yl)methyl acetate], with 5.99 µM; and `Cc1cc(-n2cc(NC(N)=O)c(C(N)=O)n2)ccc1-c1cccc(OCC#N)c1` [Example 243, 1-(3′-Cyanomethoxy-2-methyl-biphenyl-4-yl)-4-ureido-1H-pyrazole-3-carboxylic acid amide], with 8.11 µM.
For `COc1ccc(CNC(=O)CCc2cccc(-c3ccc(-n4cc(NC(N)=O)c(C(N)=O)n4)cc3)c2)c(OC)c1` [Example 380, 4-[(aminocarbonyl)amino]-1-(3′-{3-[(2,4-dimethoxybenzyl)amino]-3-oxopropyl}-1,1′-biphenyl-4-yl)-1H-pyrazole-3-carboxamide], the IC50 stood at 1.54 µM.
Then `NC(=O)Nc1cn(-c2ccc(Sc3ccc(F)cc3)cc2Cl)nc1C(N)=O` [Example 376, 1-(1-(4-(4-fluorophenylthio)-2-chlorophenyl)-3-carbamoyl-1H-pyrazol-4-yl)urea], with 0.31 µM; and `NC(=O)Nc1cn(-c2ccc(-c3ccc(C(=O)NC4CCCc5ccccc54)c(F)c3)cc2)nc1C(N)=O` (centres unmarked) [Example 159, 4-[(aminocarbonyl)amino]-1-{3′-fluoro-4′-[(1,2,3,4-tetrahydronaphthalen-1-ylamino)carbonyl]-1,1′-biphenyl-4-yl}-1H-pyrazole-3-carboxamide], with 5.97 µM; and `Cc1ccc(-c2ccc(-n3cc(NC(N)=O)c(C(N)=O)n3)cc2)cc1` [Example 103], with above 20 µM.
The value for `NC(=O)Nc1cn(-c2ccc(-c3cccc(OC(F)(F)F)c3)cc2)nc1C(N)=O` [Example 24, 4-[(aminocarbonyl)amino]-1-[3′-(trifluoromethoxy)-1,1′-biphenyl-4-yl]-1H-pyrazole-3-carboxamide] was 7.73 µM; that for `NC(=O)Nc1cn(-c2ccc([S+]([O-])c3ccccc3F)cc2)nc1C(N)=O` (centres unmarked) [Example 193, 1-(1-(4-(2-fluorophenylsulfinyl)phenyl)-3-carbamoyl-1H-pyrazol-4-yl)urea] was 3.75 µM; that for `CSc1ccccc1-c1cccc(-n2cc(NC(N)=O)c(C(N)=O)n2)c1` [Example 356, 4-[(aminocarbonyl)amino]-1-[2′-(methylthio)-1,1′-biphenyl-3-yl]-1H-pyrazole-3-carboxamide] was above 20 µM.
The value for `NC(=O)Nc1cn(-c2cccc(-c3cccc(C(N)=O)c3)c2)nc1C(N)=O` [Example 79, 4-[(aminocarbonyl)amino]-1-[3′-(aminocarbonyl)-1,1′-biphenyl-3-yl]-1H-pyrazole-3-carboxamide] was 5.67 µM; that for `CCOc1cc(-n2cc(NC(N)=O)c(C(N)=O)n2)ccc1-c1cccc(OCC#N)c1` [Example 231, 4-[(aminocarbonyl)amino]-1-[3′-(cyanomethoxy)-2-ethoxy-1,1′-biphenyl-4-yl]-1H-pyrazole-3-carboxamide] was 4.88 µM; that for `CNC(=O)c1cccc(-c2cccc(-n3cc(NC(N)=O)c(C(N)=O)n3)c2)c1` [Example 83, 4-[(aminocarbonyl)amino]-1-{3′-[(methylamino)carbonyl]-1,1′-biphenyl-3-yl}-1H-pyrazole-3-carboxamide] was 1.29 µM.

(Values after patent US20050197338A1, “Substituted pyrazole urea compounds for the treatment of inflammation” (priority 2003, published 2005).)
